In ChEMBL document CHEMBL3286137, “Design, synthesis and structure-activity relationships of novel 4-phenoxyquinoline derivatives containing pyridazinone moiety as potential antitumor agents” (Eur J Med Chem, 2014) one finds IC50 data, which are given here for 1 molecule.

In the experiment the target is T1, Amine oxidase [copper-containing] 3 (Homo sapiens, UniProt Q16853).
T1 sequence (Q16853 whole entry): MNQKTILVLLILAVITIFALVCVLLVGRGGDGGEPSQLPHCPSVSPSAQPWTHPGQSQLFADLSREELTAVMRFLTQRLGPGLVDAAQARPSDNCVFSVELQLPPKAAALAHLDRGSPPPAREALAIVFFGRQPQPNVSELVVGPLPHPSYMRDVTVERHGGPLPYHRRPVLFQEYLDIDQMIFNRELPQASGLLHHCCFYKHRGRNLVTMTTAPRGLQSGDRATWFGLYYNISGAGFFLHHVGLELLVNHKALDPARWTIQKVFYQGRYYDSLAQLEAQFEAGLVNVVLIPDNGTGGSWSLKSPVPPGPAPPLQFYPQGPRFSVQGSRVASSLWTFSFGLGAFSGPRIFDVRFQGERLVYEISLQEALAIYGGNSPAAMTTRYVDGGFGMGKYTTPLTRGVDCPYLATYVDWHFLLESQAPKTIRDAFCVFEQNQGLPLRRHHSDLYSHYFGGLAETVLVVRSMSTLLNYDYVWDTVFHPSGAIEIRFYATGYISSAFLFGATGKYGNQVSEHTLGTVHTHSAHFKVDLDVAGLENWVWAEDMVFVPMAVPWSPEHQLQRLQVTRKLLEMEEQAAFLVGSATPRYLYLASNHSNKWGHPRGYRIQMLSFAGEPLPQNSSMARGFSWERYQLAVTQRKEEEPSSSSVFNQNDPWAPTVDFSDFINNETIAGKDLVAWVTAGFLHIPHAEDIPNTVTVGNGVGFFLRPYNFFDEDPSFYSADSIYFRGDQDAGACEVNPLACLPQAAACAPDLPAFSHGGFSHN
In words: Inhibition of human VAP1.

Take `O=c1ccc(=O)[nH][nH]1`: the IC50 turned out to be 20 nM.

A word on the IC50: it is the point on the concentration scale where inhibition reaches its midpoint. A higher IC50 goes with lower potency.
